From ChEMBL document CHEMBL4000174, “Synthesis and antitumor activity of novel substituted uracil-1'(N)-acetic acid ester derivatives of 20(S)-camptothecins” (Eur J Med Chem, 2017)
Activity calls are given as the source filed them. The rule behind the calls is not given here.

Columns and labels:
Bel-7402 [1] = assay: Antitumor activity against human Bel7402 cells xenografted in BALB/c nude mouse assessed as tumor volume at 60 mg/kg, ip administered once in a week for two weeks starting from 6 days post tumor transplantation measured 27 to 30 days post tumor transplantation relative to control; type: functional
H22 = assay: Antitumor activity against mouse H22 cells implanted in Kunming mouse assessed as tumor growth inhibition at 40 mg/kg, ip administered on day 1 and day 5 relative to control relative to control; type: functional; conditions: read-out: TGI
BGC-823 [2] = assay: Antitumor activity against human BGC823 cells xenografted in BALB/c nude mouse assessed as tumor volume at 30 mg/kg, ip administered once in a week for two weeks starting from 6 days post tumor transplantation measured 27 to 30 days post tumor transplantation relative to control; type: functional
A549 [3] = assay: Induction of apoptosis in human A549 cells assessed as necrotic cells at 75 nM after 24 hrs by Annexin V-FITC/propidium iodide staining based flow cytometry (reference value: 7.62%); type: functional
A549 [4] = assay: Induction of apoptosis in human A549 cells assessed as membrane blebbing after 24 hrs by phase contrast microscopy; type: functional, cell-based
A549 [5] = assay: Induction of apoptosis in human A549 cells assessed as early apoptotic cells at 8 nM after 24 hrs by Annexin V-FITC/propidium iodide staining based flow cytometry (reference value: 0.50%); type: functional
A549 [6] = assay: Induction of apoptosis in human A549 cells assessed as viable cells at 8 nM after 24 hrs by Annexin V-FITC/propidium iodide staining based flow cytometry (reference value: 89.41%); type: functional; conditions: A549, 24 h, read-out: Activity
BGC-823 [7] = assay: Antitumor activity against human BGC823 cells xenografted in BALB/c nude mouse assessed as tumor volume at 60 mg/kg, ip administered once in a week for two weeks starting from 6 days post tumor transplantation measured 27 to 30 days post tumor transplantation relative to control; type: functional
A549 [8] = assay: Induction of apoptosis in human A549 cells assessed as late apoptotic cells at 8 nM after 24 hrs by Annexin V-FITC/propidium iodide staining based flow cytometry (reference value: 2.47%); type: functional
A549 [9] = assay: Cell cycle arrest in human A549 cells assessed as accumulation at G2/M phase at 25 nM after 24 hrs by propidium iodide staining based flow cytometry (reference value: 8.36%); type: functional
A549 [10] = assay: Induction of apoptosis in human A549 cells assessed as early apoptotic cells at 75 nM after 24 hrs by Annexin V-FITC/propidium iodide staining based flow cytometry (reference value: 0.50%); type: functional
Mus musculus [11] = assay: Toxicity in Kunming mouse implanted with mouse H22 cells assessed as survival at 60 mg/kg, ip administered twice; type: organism-based; conditions: in vivo
A549 [12] = assay: Induction of apoptosis in human A549 cells assessed as decrease in Bcl-2 protein level at 8 to 75 nM by Western blot method; type: functional, cell-based
Bel-7402 [13] = assay: Antitumor activity against human Bel7402 cells xenografted in BALB/c nude mouse assessed as tumor growth inhibition at 60 mg/kg, ip administered once in a week for two weeks starting from 6 days post tumor transplantation measured 27 to 30 days post tumor transplantation relative to control; type: functional; conditions: Bel-7402, ip, read-out: TGI
A549 [14] = assay: Induction of apoptosis in human A549 cells assessed as increase in Bax protein level at 8 to 75 nM by Western blot method; type: functional, cell-based
A549 [15] = assay: Induction of apoptosis in human A549 cells assessed as late apoptotic cells at 75 nM after 24 hrs by Annexin V-FITC/propidium iodide staining based flow cytometry (reference value: 2.47%); type: functional
HCT-8 = assay: Antiproliferative activity against human HCT8 cells after 96 hrs by MTT assay; type: functional, cell-based; conditions: HCT-8, 96 h
Mus musculus [16] = assay: Toxicity in BALB/c nude mouse xenografted with human BGC823 cells assessed as body weight at 30 mg/kg, ip administered once in a week for two weeks starting from 6 days post tumor transplantation and measured every 3 days during compound dosing for 15 days (reference value: 23.6 g); type: organism-based; conditions: in vivo, 360 h
A549 [17] = assay: Cell cycle arrest in human A549 cells assessed as accumulation at S phase at 75 nM after 24 hrs by propidium iodide staining based flow cytometry (reference value: 32.80%); type: functional
Mus musculus [18] = assay: Toxicity in BALB/c nude mouse xenografted with human BGC823 cells assessed as tumor volume at 30 mg/kg, ip administered once in a week for two weeks starting from 6 days post tumor transplantation and measured every 3 days during compound dosing for 15 days (reference value: […]); conditions: in vivo, 360 h
Escherichia coli = assay: Inhibition of Escherichia coli topoisomerase 1-mediated relaxation of supercoiled Pcmv-6 plasmid DNA at 30 to 50 uM after 30 mins by ethidium bromide staining based agarose gel electrophoretic analysis
A549 [19] = assay: Antiproliferative activity against human A549 cells after 96 hrs by MTT assay; type: functional, cell-based; conditions: A549, 96 h
Mus musculus [20] = assay: Toxicity in Kunming mouse implanted with mouse H22 cell assessed as survival at 40 mg/kg, ip administered on day 1 and day 5; type: organism-based; conditions: in vivo
A549 [21] = assay: Induction of apoptosis in human A549 cells assessed as caspase-3 level at 8 to 75 nM by Western blot method; type: functional, cell-based
Mus musculus [22] = assay: Toxicity in BALB/c nude mouse xenografted with human Bel7402 cells assessed as body weight at 30 mg/kg, ip administered once in a week for two weeks starting from 6 days post tumor transplantation measured every 3 days for 21 days (reference value: 14.5 g); type: organism-based; conditions: in vivo, 504 h
A549 [23] = assay: Induction of apoptosis in human A549 cells assessed as increase in cleaved caspase-3 level at 8 to 75 nM by Western blot method; type: functional, cell-based
Mus musculus [24] = assay: Toxicity in BALB/c nude mouse xenografted with human BGC823 cells assessed as body weight at 60 mg/kg, ip administered once in a week for two weeks starting from 6 days post tumor transplantation and measured every 3 days during compound dosing for 15 days (reference value: 23.6 g); type: organism-based; conditions: in vivo, 360 h
Mus musculus [25] = assay: Antitumor activity in BALB/c nude mouse xenografted with human Bel7402 cells assessed as tumor volume at 60 mg/kg, ip administered once in a week for two weeks starting from 6 days post tumor transplantation measured every 3 days for 21 days (reference value: […]); conditions: in vivo, 504 h
Mus musculus [26] = assay: Toxicity in BALB/c nude mouse xenografted with human BGC823 cells assessed as mouse survival at 30 mg/kg, ip administered once in a week for two weeks starting from 6 days post tumor transplantation; type: organism-based; conditions: in vivo, 144 h
A549 [27] = assay: Induction of apoptosis in human A549 cells assessed as late apoptotic cells at 25 nM after 24 hrs by Annexin V-FITC/propidium iodide staining based flow cytometry (reference value: 2.47%); type: functional
Bel-7402 [28] = assay: Antitumor activity against human Bel7402 cells xenografted in BALB/c nude mouse assessed as tumor growth inhibition at 30 mg/kg, ip administered once in a week for two weeks starting from 6 days post tumor transplantation measured 27 to 30 days post tumor transplantation relative to control; type: functional; conditions: Bel-7402, ip, read-out: TGI
A549 [29] = assay: Cell cycle arrest in human A549 cells assessed as accumulation at G2/M phase at 8 nM after 24 hrs by propidium iodide staining based flow cytometry (reference value: 8.36%); type: functional

SMILES: CCc1c2c(nc3ccccc13)-c1cc3c(c(=O)n1C2)COC(=O)[C@@]3(CC)OC(=O)Cn1cc(F)c(=O)[nH]c1=O
- T/C (Bel-7402 [1]): 24.53%
- inhibition in vivo at 40 mg/kg (H22): 57.5%
- T/C (BGC-823 [2]): 12.65%
- Activity (A549 [3]): 10.77%
- Activity (A549 [4]): Dose-dependent effect
- Activity (A549 [5]): 3%
- viability at 0.008 µM (A549 [6]): 80.2%
- T/C (BGC-823 [7]): 5.54%
- Activity (A549 [8]): 13.06%
- Activity (A549 [9]): 71.74%
- Activity (A549 [10]): 23.7%
- Activity (Mus musculus [11]): Non-Toxic
- Activity (A549 [12]): Active
- inhibition in vivo at 60 mg/kg (Bel-7402 [13]): 81.5%
- Activity (A549 [14]): Active
- Activity (A549 [15]): 34.98%
- IC50 (HCT-8): 7 nM
- Activity (Mus musculus [16]): 19.1 g
- Activity (A549 [17]): 30.76%
- tumor volume (Mus musculus [18]): 334 mm³
- inhibition (Escherichia coli): Active
- IC50 (A549 [19]): 27 nM
- Activity (Mus musculus [20]): Non-Toxic
- Activity (A549 [21]): Active
- Activity (Mus musculus [22]): Non-Toxic
- Activity (A549 [23]): Active
- Activity (Mus musculus [24]): 21.9 g
- tumor volume (Mus musculus [25]): 127 mm³
- Activity (Mus musculus [26]): Non-Toxic
- Activity (A549 [27]): 26.6%
- inhibition in vivo at 30 mg/kg (Bel-7402 [28]): 62.6%
- Activity (A549 [29]): 31.21%
